Laboratory results: ChEMBL document CHEMBL1201862, “PubChem BioAssay data set” (2004)
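A five-concentration, 48-hour dose response in 96-well plates underlies each endpoint, interpolated linearly between surrounding concentrations. GI50 is the concentration that inhibits growth by half.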 Activity calls are given as the source filed them. Cut-off read from the data, not from the text of the source: active = GI50 up to about 1.1 µM and inactive = higher.

Columns and labels:
Test in all cases: inhibition of tumour cell growth, NCI panel, 48 h
[1] = system: 786-0
[2] = system: A498
[3] = system: A549
[4] = system: ACHN
[5] = system: BT-549
[6] = system: CAKI-1
[7] = system: CCRF-CEM
[8] = system: COLO 205
[9] = system: DU-145
[10] = system: HCC 2998
[11] = system: HCT-116
[12] = system: HCT-15
[13] = system: HL-60
[14] = system: HOP-92
[15] = system: HT-29
[16] = system: IGROV-1
[17] = system: K562
[18] = system: KM12
[19] = system: M14
[20] = system: MCF7
[21] = system: MDA-MB-231
[22] = system: MDA-MB-435
[23] = system: MDA-N
[24] = system: MOLT-4
[25] = system: Malme-3M
[26] = system: NCI-H226
[27] = system: NCI-H23
[28] = system: NCI-H460
[29] = system: NCI-H522
[30] = system: NCI/ADR-RES
[31] = system: OVCAR-3
[32] = system: OVCAR-4
[33] = system: OVCAR-5
[34] = system: OVCAR-8
[35] = system: PC-3
[36] = system: RPMI-8226
[37] = system: RXF 393
[38] = system: SF-268
[39] = system: SF-295
[40] = system: SF-539
[41] = system: SK-MEL-28
[42] = system: SK-MEL-2
[43] = system: SK-MEL-5
[44] = system: SN12C
[45] = system: SNB-19
[46] = system: SNB-75
[47] = system: SW-620
[48] = system: T47D
[49] = system: TK-10
[50] = system: U-251
[51] = system: UACC-257
[52] = system: UACC-62
[53] = system: UO-31

Structure (SMILES): CC(C(N)=O)N(C)C(=O)c1cc2ccccc2[n+](Cc2ccccc2)c1 (stereo not drawn)
- GI50 [1]: > 100 µM (inactive)
- GI50 [2]: > 100 µM (inactive)
- GI50 [3]: > 100 µM (inactive)
- GI50 [4]: > 100 µM (inactive)
- GI50 [5]: > 100 µM (inactive)
- GI50 [6]: > 100 µM (inactive)
- GI50 [7]: > 100 µM (inactive)
- GI50 [8]: > 100 µM (inactive)
- GI50 [9]: > 100 µM (inactive)
- GI50 [10]: > 100 µM (inactive)
- GI50 [11]: > 100 µM (inactive)
- GI50 [12]: > 100 µM
- GI50 [13]: > 100 µM (inactive)
- GI50 [14]: > 100 µM (inactive)
- GI50 [15]: > 100 µM (inactive)
- GI50 [16]: > 100 µM (inactive)
- GI50 [17]: > 100 µM (inactive)
- GI50 [18]: > 100 µM (inactive)
- GI50 [19]: > 100 µM (inactive)
- GI50 [20]: > 100 µM (inactive)
- GI50 [21]: > 100 µM (inactive)
- GI50 [22]: > 100 µM (inactive)
- GI50 [23]: > 100 µM (inactive)
- GI50 [24]: > 100 µM (inactive)
- GI50 [25]: > 100 µM (inactive)
- GI50 [26]: > 100 µM (inactive)
- GI50 [27]: > 100 µM (inactive)
- GI50 [28]: > 100 µM (inactive)
- GI50 [29]: > 100 µM (inactive)
- GI50 [30]: > 100 µM (inactive)
- GI50 [31]: > 100 µM (inactive)
- GI50 [32]: > 100 µM (inactive)
- GI50 [33]: > 100 µM (inactive)
- GI50 [34]: > 100 µM (inactive)
- GI50 [35]: > 100 µM (inactive)
- GI50 [36]: > 100 µM (inactive)
- GI50 [37]: > 100 µM (inactive)
- GI50 [38]: > 100 µM (inactive)
- GI50 [39]: > 100 µM (inactive)
- GI50 [40]: > 100 µM (inactive)
- GI50 [41]: > 100 µM (inactive)
- GI50 [42]: > 100 µM (inactive)
- GI50 [43]: > 100 µM (inactive)
- GI50 [44]: > 100 µM (inactive)
- GI50 [45]: > 100 µM (inactive)
- GI50 [46]: > 100 µM (inactive)
- GI50 [47]: > 100 µM (inactive)
- GI50 [48]: > 100 µM (inactive)
- GI50 [49]: > 100 µM (inactive)
- GI50 [50]: > 100 µM (inactive)
- GI50 [51]: > 100 µM (inactive)
- GI50 [52]: > 100 µM (inactive)
- GI50 [53]: > 100 µM (inactive)
